From patent EP2250163B1, “HEPATITIS C VIRUS INHIBITORS” (Bristol-Myers Squibb Company, priority 2008, dated 2009)

System: HCV 1b-377-neo replicon cells
Experiment: HCV replicon assay, wild-type cells
Type: cell-based
Details: Hepatitis C virus, against the HCV 1b genotype, read-out: EC50 Range
Method: An HCV Replion assay was utilized in the present disclosure, and was prepared, conducted and validated as described in commonly owned PCT/US2006/022197 and in O'Boyle et al. Antimicrob Agents Chemother. 2005 Apr;49(4):1346-53.
HCV 1b-377-neo replicon cells were used to test the currently described compound series as well as cells resistant to compound A due to a Y2065H mutation in NS5A (described in application PCT/US2006/022197). The compounds tested were determined to have more than 10-fold less inhibitory activity on cells resistant to compound A than wild-type cells indicating a related mechanism of action between the two compound series. Thus, the compounds of the present disclosure can be effective to inhibit the function of the HCV NS5A protein and are understood to be as effective in combinations as previously described in application PCT/US2006/022197 and commonly owned WO/04014852. Further, the compounds of the present disclosure can be effective against the HCV 1b genotype. It should also be understood that the compounds of the present disclosure can inhibit multiple genotypes of HCV. […] In one embodiment compounds of the present disclosure are active against the 1a, 1b, 2a, 2b, 3a, 4a, and 5a genotypes.

COCC[C@H](NC(=O)OC)C(=O)N[C@H](c1nc(-c2ccc(-c3ccc(-c4c[nH]c([C@@H]5CCCN5C(=O)[C@H](CCOC)NC(=O)OC)n4)cc3)cc2)c[nH]1)C(C)C [Example R20, methyl ((1S)-3-methoxy-1-(((2S)-2-(4-(4'-(2-((1S)-1-((N-(methoxycarbonyl)-O-methyl-L-homoseryl)amino)-2-methylpropyl)-1H-imidazol-4-yl)-4-biphenylyl)-1H-imidazol-2-yl)-1-pyrrolidinyl)carbonyl)propyl)carbamate]
EC50: 0.001 to 0.999 nM

COC(=O)N[C@H](C(=O)Nc1ncc(-c2ccc(-c3ccc(-c4cnc([C@@H]5CCCN5C(=O)[C@@H](NC(=O)OC)C(C)C)[nH]4)cc3)cc2)[nH]1)C(C)C [Example R33, (S)-2-methoxycarbonylamino-N-(5-(4'-(2-((S)-1-((S)-2-methoxycarbonylamino-3-methylbutanoyl)pyrrolidin-2-yl)-1H-imidazol-5-yl)biphenyl-4-yl)-1H-imidazol-2-yl)-3-methylbutanamide]
EC50: 1 to 99 nM
